Experimental findings from publication PMC10377586 (Biomolecules, 2023) are described below.

Test [1] deals with T1, rat D1 receptor (Rattus norvegicus, UniProt P18901).
T1 construct: source of native rat D1 receptor protein; from tissue; host or cells: rat striatum (methods) / rat brain cortical membranes
Kind of test: Radioligand binding [3H]SCH23390, rat brain tissue. To be noted: for Ki: native rat D1 receptor, read-out: rD1 [3H]SCH23390 Ki ± SEM; for inhibition at 1 µM: read-out: rD1 [3H]SCH23390 % inhibition ± SEM at 1 µM. How it is done:
Rat brain cortical membranes were used as source of native rat D1 receptor protein, and human D2 receptor was recombinantly expressed in HEK293 cells.
Rat striatum tissue was thawed in 50 volumes of ice-cold 50 mM potassium phosphate buffer, pH 7.4, homogenized and centrifuged at 20,000× g for 20 min. The resulting pellet was resuspended in the same quantity of the buffer and centrifuged again for 20 min. Binding experiments were conducted in 96-well microplates in a total volume of 250 μL of appropriate buffers. Reaction mix included 50 μL solution of test compound, 50 μL of radioligand, and 150 μL of tissue suspension (3 mg/mL). [^3H]SCH23390 (spec. act. 81.9 Ci/mmol, PerkinElmer, NET 930) was used for labeling the D1-receptor. For measuring unspecific binding, cis(Z)flupentixol—5 μM was applied. Samples were incubated at 30 °C for 60 min. The incubation was terminated by rapid filtration over glass fiber filters GF/B using a Harvester (PerkinElmer, USA). The radioactivity was measured in MicroBeta TriLux 1450—liquid scintillation counter (PerkinElmer). Each compound was tested in a screening assay in duplicate at final concentrations of 1 µM. Results were expressed as a percent of inhibition of specific binding.

Test [2] deals with T2, rat A1 (rA1) ARs (Rattus norvegicus, UniProt P25099).
T2 construct: using rat brain cortical membrane preparations for A1; tissue Pel Freez; host or cells: rat brain cortex membranes
T2 sequence (P25099 1-326): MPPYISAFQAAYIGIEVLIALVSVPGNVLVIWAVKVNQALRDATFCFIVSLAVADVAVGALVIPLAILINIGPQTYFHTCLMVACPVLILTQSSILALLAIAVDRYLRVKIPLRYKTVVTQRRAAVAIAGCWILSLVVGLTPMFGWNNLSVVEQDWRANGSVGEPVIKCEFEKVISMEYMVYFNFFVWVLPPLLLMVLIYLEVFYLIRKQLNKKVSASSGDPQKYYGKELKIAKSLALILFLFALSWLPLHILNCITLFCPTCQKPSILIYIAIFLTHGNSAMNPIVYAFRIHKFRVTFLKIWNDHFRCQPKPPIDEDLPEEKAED
The test is described as follows: Radioligand binding [3H]CCPA, rat brain cortical membranes. The note with it: read-out: rA1 [3H]CCPA Ki ± SEM. How it is done:
(§1) The final compounds were tested in radioligand binding assays to evaluate their affinity for all four ARs subtypes (see Table 2). Rat brain cortical membrane preparations were used as a source of rat A1 (rA1) ARs, and rat brain striatal membrane preparations served as a source of rat A2A (rA2A) ARs. For A2B- and A3AR assays, membrane preparations of Chinese hamster ovary (CHO) cells recombinantly expressing either human A2B (hA2B) or human A3 (hA3) ARs were employed.
(§2) Adenosine receptor radioligand binding assays were performed as previously described using rat brain cortical membrane preparations for A1 and rat brain striatal membrane preparations for A2A AR assays. Frozen rat brains (unstripped) were obtained from Pel Freez, Rogers, AR, USA. For assays at human AR subtypes, cell membranes of CHO cells recombinantly expressing the respective receptor were used. The following compounds were employed as radioligands: A1: [^3H]2-chloro-N^6-cyclopentyladenosine ([^3H]CCPA); A2A: [^3H]3-(3-hydroxypropyl)-7-methyl-8-(m-methoxystyryl)-1-propargylxanthine ([^3H]MSX-2); A2B: [^3H]8-(4-(4-(4-chlorophenyl)piperazine-1-sulfonyl)phenyl)-1-propylxanthine ([^3H]PSB-603); A3: [^3H]phenyl-8-ethyl-4-methyl-(8R)-4,5,7,8-tetrahydro-1H-imidazo[2,1-i]purine-5-one ([^3H]PSB-11). Initially, a single high concentration of compound was tested (1 µM). For potent compounds, full concentration–inhibition curves were determined using six to ten different concentrations of test compound spanning three orders of magnitude. At least three independent experiments were performed. Data were analyzed using GraphPad PRISM program version 4.0 or higher (Graph Pad, San Diego, CA, USA).

The target of test [3] is T3, human PDE10A1 (Homo sapiens, UniProt Q9Y233).
T3 construct: purchased BPS Biosciences
The test is described as follows: PDElight HTS cAMP phosphodiesterase assay, PDE10A1. It counts as biochemical. To be noted: for inhibition at 10 µM: read-out: PDE 10A1 % Inhibition ± SEM at 10 µM; for IC50: read-out: PDE 10A1 IC50 ± SEM. The protocol:
Further biological evaluation of the presented compound library was performed determining inhibitory potencies against selected human PDE isoforms, namely, PDE4 and PDE10 (for results see Table 3).
Tested and reference compounds were dissolved in dimethyl sulfoxide (DMSO) at a concentration of 10 mM and further diluted in assay buffer (10 mM Tris-HCl, 10 mM magnesium chloride and 0.05% Tween-20; pH 7.4). Inhibition of human PDE10A and 4B1 was measured using PDElight HTS cAMP phosphodiesterase assay kit (Lonza, Basel, Switzerland) according to manufacturer’s recommendations. Then, 10 ng of PDE10A and 5 ng of PDE4B1 (BPS Biosciences, San Diego, CA, USA) in appropriate buffer was incubated with reference and tested compound for 20 min. […] Then PDELight AMP Detection Reagent was added and incubated 10 min. All reactions were carried out at 37 °C in 96 white-walled, half-area-well plates (PerkinElmer). Luminescence was measured in a multifunction plate reader (POLARstar Omega, BMG Labtech, Ortenberg, Germany). The percentage of inhibition and IC50s were computed using GraphPad Prism Version 6.0 software.

The target in test [4] is T4, human A2B (hA2B) ARs (Homo sapiens, UniProt P29275).
T4 construct: expressed in transfected cells; host or cells: CHO cells (membranes)
T4 sequence (P29275 1-332): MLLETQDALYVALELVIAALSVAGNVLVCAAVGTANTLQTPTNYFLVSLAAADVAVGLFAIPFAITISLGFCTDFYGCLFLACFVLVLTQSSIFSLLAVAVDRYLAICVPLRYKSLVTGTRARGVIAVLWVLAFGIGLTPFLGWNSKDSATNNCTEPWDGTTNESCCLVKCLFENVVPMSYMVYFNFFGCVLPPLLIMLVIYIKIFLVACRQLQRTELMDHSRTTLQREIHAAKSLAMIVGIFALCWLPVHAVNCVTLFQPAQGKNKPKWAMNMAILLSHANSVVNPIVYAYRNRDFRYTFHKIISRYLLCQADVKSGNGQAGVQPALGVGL
Kind of test: Radioligand binding [3H]PSB-603, CHO cell membranes. To be noted: for Ki: CHO cell membranes, read-out: hA2B [3H]PSB-603 Ki ± SEM; for inhibition at 1 µM: read-out: hA2B [3H]PSB-603 % inhibition ± SEM at 1 µM. How it is done: as §1, §2

T3 sequence (Q9Y233 1-779 isoform Q9Y233-1): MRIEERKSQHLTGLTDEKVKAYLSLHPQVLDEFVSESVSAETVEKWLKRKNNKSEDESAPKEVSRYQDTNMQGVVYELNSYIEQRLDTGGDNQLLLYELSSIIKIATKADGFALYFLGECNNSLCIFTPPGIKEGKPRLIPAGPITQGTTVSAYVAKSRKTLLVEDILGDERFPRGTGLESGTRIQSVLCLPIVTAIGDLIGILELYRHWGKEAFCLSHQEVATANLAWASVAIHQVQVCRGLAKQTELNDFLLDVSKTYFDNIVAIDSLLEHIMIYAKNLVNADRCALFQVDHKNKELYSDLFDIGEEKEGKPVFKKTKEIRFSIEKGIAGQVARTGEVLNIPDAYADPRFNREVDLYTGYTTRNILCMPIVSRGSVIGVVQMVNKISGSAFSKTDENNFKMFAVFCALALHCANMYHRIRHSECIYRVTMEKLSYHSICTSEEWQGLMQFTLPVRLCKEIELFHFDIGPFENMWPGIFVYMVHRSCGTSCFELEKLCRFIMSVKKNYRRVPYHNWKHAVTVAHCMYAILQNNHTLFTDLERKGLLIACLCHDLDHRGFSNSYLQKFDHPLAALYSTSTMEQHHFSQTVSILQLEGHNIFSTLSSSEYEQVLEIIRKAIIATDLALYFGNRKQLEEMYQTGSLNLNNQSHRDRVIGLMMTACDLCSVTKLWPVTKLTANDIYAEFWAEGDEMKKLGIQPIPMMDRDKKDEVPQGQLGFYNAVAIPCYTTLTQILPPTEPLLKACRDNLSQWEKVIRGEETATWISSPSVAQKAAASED
T1 sequence (P18901 whole entry): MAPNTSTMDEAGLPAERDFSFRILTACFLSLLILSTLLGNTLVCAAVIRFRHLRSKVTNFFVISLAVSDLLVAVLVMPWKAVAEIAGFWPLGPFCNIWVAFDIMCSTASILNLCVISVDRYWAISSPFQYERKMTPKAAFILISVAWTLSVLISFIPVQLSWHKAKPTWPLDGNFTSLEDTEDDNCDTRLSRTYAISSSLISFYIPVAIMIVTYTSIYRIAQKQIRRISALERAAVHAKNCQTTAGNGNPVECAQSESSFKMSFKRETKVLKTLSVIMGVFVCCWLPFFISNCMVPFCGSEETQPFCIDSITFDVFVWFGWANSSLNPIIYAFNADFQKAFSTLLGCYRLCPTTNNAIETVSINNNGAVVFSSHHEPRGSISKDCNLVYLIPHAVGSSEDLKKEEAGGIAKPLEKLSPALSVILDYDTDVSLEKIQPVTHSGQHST

Usually Ki stands for a measure of affinity in units of concentration, obtained from inhibition or displacement. As usually defined, the inhibition is the drop in the measured response relative to a control, in per cent. As a reminder, the IC50 is the midpoint of a concentration-inhibition curve. Regarding `CCCCCCn1c(NCCc2ccc(O)c(O)c2)nc2c1c(=O)n(C)c(=O)n2C` [Compound 11i, 8-((3,4-Dihydroxyphenethyl)amino)-7-hexyl-1,3-dimethyl-3,7-dihydro-1H-purine-2,6-dione], the Ki in test [1] is > 1 µM; in test [2] it was > 10 µM; in test [4], > 1 µM. Also, the inhibition at 1 µM in test [1] was found to be 9%; in test [4] it was 31%. Also, in test [3], the inhibition at 10 µM was found to be 14%. The IC50 in test [3] was > 10 µM.

Turning to `Cn1c(=O)c2c(nc(NCCc3ccc(O)c(O)c3)n2Cc2ccccc2)n(C)c1=O` [Compound 11j, 7-Benzyl-8-((3,4-dihydroxyphenethyl)amino)-1,3-dimethyl-3,7-dihydro-1H-purine-2,6-dione], in test [1], the Ki is > 1 µM and the inhibition at 1 µM amounted to 3%. Further, in test [2], the Ki is 0.455 ± 0.077 µM. Besides, in test [3], the inhibition at 10 µM turned out to be 36% and the IC50 was ≥ 10 µM. In addition, in test [4], the Ki was > 1 µM and the inhibition at 1 µM came out at 31%.

For the compound `Cn1c(=O)c2c(nc(NCCc3ccc(O)c(O)c3)n2CCc2ccccc2)n(C)c1=O` [Compound 11k, 8-((3,4-Dihydroxyphenethyl)amino)-1,3-dimethyl-7-phenethyl-3,7-dihydro-1H-purine-2,6-dione], the Ki in test [1] is > 1 µM; in test [2], ≥ 10 µM; in test [4], > 1 µM. In addition, the inhibition at 1 µM was 6% in test [1] and -9% in test [4]. Further, in test [3], the IC50 came out at 2.41 ± 0.07 µM.

Take `Cn1c(=O)c2c(nc(NCCc3ccc(O)c(O)c3)n2CCOc2ccccc2)n(C)c1=O` [Compound 11l, 8-((3,4-Dihydroxyphenethyl)amino)-1,3-dimethyl-7-(2-phenoxyethyl)-3,7-dihydro-1H-purine-2,6-dione]: the Ki was > 1 µM in test [1], 0.124 ± 0.022 µM in test [2] and > 1 µM in test [4]. The inhibition at 1 µM was 3% in test [1] and 22% in test [4]. Moreover, in test [3], the inhibition at 10 µM came out at 17%. In test [3], the IC50 is > 10 µM.

`CCCn1c(=O)c2c(nc(NCCc3ccc(O)c(O)c3)n2CCC)n(CCC)c1=O` [Compound 12, 8-((3,4-Dihydroxyphenethyl)amino)-1,3,7-tripropyl-3,7-dihydro-1H-purine-2,6-dione]: the Ki in test [1] is > 1 µM; in test [2], 0.13 ± 0.031 µM; in test [4], > 1 µM. In addition, the inhibition at 1 µM worked out at 9% in test [1] and 34% in test [4]. In addition, the IC50 in test [3] was found to be 2.73 ± 0.03 µM.

`CCCCn1c(=O)c2c(nc(NCCc3ccc(O)c(O)c3)n2CCC)n(CCCC)c1=O` [Compound 13, 1,3-Dibutyl-8-((3,4-dihydroxyphenethyl)amino)-7-propyl-3,7-dihydro-1H-purine-2,6-dione]: in test [1], the Ki was > 1 µM and the inhibition at 1 µM turned out to be 2%. Besides, in test [2], the Ki is 0.1 ± 0.015 µM. Further, in test [3], the inhibition at 10 µM came out at 26% and the IC50 is > 10 µM. Also, in test [4], the Ki was > 1 µM and the inhibition at 1 µM stood at 31%.

For the compound `Cn1c(=O)c2c(nc3n2CCCN3CCc2ccc(O)c(O)c2)n(C)c1=O` [Compound 20a, 9-(3,4-Dihydroxyphenethyl)-1,3-dimethyl-6,7,8,9-tetrahydropyrimido[2,1-f]purine-2,4(1H,3H)-dione], in test [1], the Ki is > 1 µM and the inhibition at 1 µM amounted to 15%. For the same compound, the Ki in test [2] is ≥ 10 µM. In addition, in test [3], the inhibition at 10 µM turned out to be 35% and the IC50 was > 10 µM. Also, in test [4], the Ki is > 1 µM and the inhibition at 1 µM was found to be 13%.

In the case of `Cn1c(=O)c2c(nc3n2CCCCN3CCc2ccc(O)c(O)c2)n(C)c1=O` [Compound 20b, 10-(3,4-Dihydroxyphenethyl)-1,3-dimethyl-7,8,9,10-tetrahydro-1H-[1, 3]diazepino[2,1-f]purine-2,4(3H,6H)-dione], the figures for the Ki in test [1], in test [2] and in test [4] were > 1 µM, 1.05 ± 0.17 µM and > 1 µM, respectively. For the same compound, the inhibition at 1 µM in test [1] came to 15%; in test [4], 6%. In test [3], the IC50 was 30.7 ± 0.2 µM.

`CCCn1c(=O)c2c(nc3n2CCCN3CCc2ccc(O)c(O)c2)n(CCC)c1=O` [Compound 21, 9-(3,4-Dihydroxyphenethyl)-1,3-dipropyl-6,7,8,9-tetrahydropyrimido[2,1-f]purine-2,4(1H,3H)-dione]: the Ki was > 1 µM in test [1], 0.07 ± 0.005 µM in test [2] and 0.371 ± 0.023 µM in test [4]. Moreover, the inhibition at 1 µM in test [1] is 12%. Also, in test [3], the IC50 is 31 ± 0.1 µM.

`CCCCn1c(=O)c2c(nc3n2CCCN3CCc2ccc(O)c(O)c2)n(CCCC)c1=O` [Compound 22, 1,3-Dibutyl-9-(3,4-dihydroxyphenethyl)-6,7,8,9-tetrahydropyrimido[2,1-f]purine-2,4(1H,3H)-dione]: in test [1], the Ki is > 1 µM and the inhibition at 1 µM is 11%. Besides, the Ki in test [2] came out at 0.053 ± 0.008 µM. In addition, in test [3], the inhibition at 10 µM is 25% and the concentration for half-maximal inhibition (IC50) is > 10 µM. Further, the Ki in test [4] is 0.175 ± 0.021 µM.
